Legend:
rTRPV2-YFP = system: T1, rTRPV2-YFP; experiment: Selectivity profiling, fluo-4 [Ca2+]i response, TRPV2; assay type: cell-based, rat
T1 construct: expressed in transfected cells
Description: Human embryonic kidney 293 (HEK293) cells were stably transfected with expression plasmids that encode hTRPC3-YFP, hTRPC6-YFP, hTRPC7-YFP, mTRPC4ß-YFP, rTRPV1-CFP, rTRPV2-YFP, rTRPV3-YFP, mTRPV4-YFP, or hTRPM2 as previously described. Cell lines were cultured in Earle’s minimum essential medium (MEM; Sigma, Munich, Germany), supplemented with 10% fetal calf serum (Gibco Thermo Fisher Scientific, Darmstadt, Germany), 2 mM L-glutamine, and required concentrations of geneticin in a range of 0.4–1 mg/mL. A HEK293mTRPC5-YFP cell line was maintained and induced as described before. […] For electrophysiological and single cell [Ca^2+]i imaging experiments, PC12 cells were plated onto 25 mm poly-L-lysine-coated glass coverslips and measured 24–48 h after seeding. […]
The primary compound screen and the generation of concentration response curves in HEK293 cells or in PC12 cells were performed by using a custom-made fluorescence plate imager built into a robotic liquid handling station equipped with a 96-tip multichannel head (Freedom Evo 150, Tecan, Männedorf, Switzerland) as described previously. […] Plates were mounted on the imager, and fluorescence signals were recorded with a cooled Zyla 5.5 camera (Andor, Belfast, UK) through a 515 nm long pass filter. […] When inhibitory potencies were evaluated, a second pipetting step with the respective reference agonist was performed. […]

[1] = system: T2, heteromeric TRPC3:TRPC6 channel complexes; experiment: Fluo-4 Ca2+ influx assay in HEK293 cells co-expressing TRPC3 and TRPC6; assay type: cell-based; conditions: fluo-4 concentration response analysis
T2 construct: expressed in transfected cells; host or cells: HEK293, stably co-transfected
Description: All fluorometric Ca^2+ assays were done in (4-(2-hydroxyethyl)-1-piperazineethanesulfonic acid) (HEPES)-buffered saline (HBS), containing 132 mM NaCl, 6 mM KCl, 1 mM MgCl2, 1 mM CaCl2, 5.5 mM D-glucose, 10 mM HEPES, and 0.035% bovine serum albumin (BSA) adjusted to pH 7.4 with NaOH. For measurements in Ca^2+-free bath solutions, a modified HBS without CaCl2 was supplemented with 200 µM ethylene glycol-bis(β-aminoethyl ether)-N,N,N′,N′-tetraacetic acid (EGTA).
The primary compound screen and the generation of concentration response curves in HEK293 cells or in PC12 cells were performed by using a custom-made fluorescence plate imager built into a robotic liquid handling station equipped with a 96-tip multichannel head (Freedom Evo 150, Tecan, Männedorf, Switzerland) as described previously. To this end, trypsinized cell suspensions were loaded with 4 µM fluo-4/AM (Invitrogen, Thermo Fisher Scientific, Waltham, MA, U.S.A.) in cell culture medium for 30 min at 37 °C. After brief centrifugation, cells were resuspended in HBS and dispensed into black pigmented, clear-bottom 384-well plates (Greiner µClear, Frickenhausen, Germany). Plates were mounted on the imager, and fluorescence signals were recorded with a cooled Zyla 5.5 camera (Andor, Belfast, UK) through a 515 nm long pass filter. The image acquisition was controlled by the µManager software (http://micro-manager.org), and excitation with a LED array (470 nm) was synchronized by the camera trigger output. After baseline recording for about 60 s, the compound libraries or serial dilutions of activators or inhibitors were added to the cells by the liquid handling device. When inhibitory potencies were evaluated, a second pipetting step with the respective reference agonist was performed. Fluorescence intensities were calculated from image stacks for each well with ImageJ (National Institutes of Health, Bethesda, MD, U.S.A.), corrected for background signals, and normalized to the initial intensities (F/F0). […]

C[C@@H]1CC[C@H]2[C@@H](C)C(=O)O[C@@H]3O[C@@]4(C)CC[C@@H]1[C@]32OO4 [artemisinin]
[Ca2+]i response, TRPV2 (rTRPV2-YFP; 100 µM): none of the cell lines responded | response of TRPV2-expressing cells to 2-APB after artemisinin (rTRPV2-YFP; 100 µM artemisinin, 2-APB final concentration 300 µM): slightly increased response | response of cells stably transfected with both TRPC3 and TRPC6 [1]: in a very similar fashion as HEKTRPC3-YFP cells

— publication PMC7016953 (Cells, 2020)
